Measured values published in US20250354192A1, “METHODS FOR QUANTIFYING LIVE BACTERIA” (priority 2022, published 2025).

Tested on: innate live bacterial populations in poultry facility swabs
Assay: 3-step metabolic labeling of poultry facility swabs with or without EDA, PIPER
Format: cell-based
Experimental: Experimental Detail: Swab samples were collected using sponge sticks (3M, Saint Paul, MN) soaked in Letheen broth (samples G, Q) or Neutralizing buffer (sample H). Samples were stored on ice and processed within 24 hours after collection. Eluents from the sponges were aseptically extracted and the rest was frozen at −80° C. until the time of analysis. Prior to 3-step metabolic labeling, an aliquot from each eluent was removed for serial dilution and plating on APC petrifilm (3M, Saint Paul, MN) and incubated as per manufacturer instructions to evaluate the number of total viable bacteria by the “gold standard” method. Each eluent sample was divided into two aliquots for incubation with EDA or without EDA, as a control for non-specific staining with the fluorophore. The 1st step of labeling was carried out by adding 5 μg/mL chloramphenicol and 1 mM EDA, where indicated, followed by 90 min incubation at 37° C. […]
FIG. 24 depicts how 3-step metabolic labeling detects innate live bacterial populations in poultry facility swabs. […] To convert the PIPER counts into the number of live bacteria per swab, the values were corrected for the volume of the viewing window relative to the total sample volume loaded into the cartridge lane, and the fraction of the total eluent volume analyzed.

Question: For `C#CC[C@@H](N)C(=O)O` [EDA, D-propargylglycine], which “increase in PIPER cell counts over (-EDA) control” value (1 mM EDA, 90 min at 37° C.) is on record?
Answer: ~1.5 log

Question: And the “signal on omitting EDA from the 1st step of labeling” value (swab samples H, G and Q)?
Answer: dramatic reduction of the signal
